Data published in patent US20260250320A1, “LIPIDATED PEPTIDE INHIBITORS OF INTERLEUKIN-23 RECEPTOR” (Janssen Pharmaceutica NV, priority 2023, published 2026).
*1 amine or outer side, *2 acyl side, *3 side chain or, on linkers, in order; H or OH if unused. Where a SMILES comes first, the peptide text is derived from it. Bridges are numbered along the chain shown (N, C = ends). Side-chain parts run from the residue outwards. [ ]: non-standard residue; d: D form. The star is where a group is joined. ξ: configuration not given here. X8 = CC(=O)[C@H](CCCCNC(=O)CC[C@H](NC(=O)CCCCCCCCCCCCCCCCC(=O)O)C(=O)O)N(C)*; X4 = C[N+](C)(CCCCCCc1ccc(C[C@H](N[*:1])C(=O)[*:2])cc1)CCOCCOCCN[*:3]; X16 = CC(C)(S[*:2])[C@H](CC(=O)CCOCCOCC[N+](C)(C)C)C(=O)[*:1]; Me3N+CH2CH2(OCH2CH2)4CO = C[N+](C)(C)CCOCCOCCOCCOCCC(=O)*; Me3N+(CH2)2O(CH2)2O(CH2)2CO = C[N+](C)(C)CCOCCOCCC(=O)*; PEG12 = NCCOCCOCCOCCOCCOCCOCCOCCOCCOCCOCCOCCOCCC(=O)O; CH2CH2OCH2CH2OCH2CH2NMe3+ = C[N+](C)(C)CCOCCOCC*; Trp(7-Me) = Cc1cccc2c(C[C@H](N)C(=O)O)c[nH]c12; C20 diacid = O=C(O)CCCCCCCCCCCCCCCCCCC(=O)*; C18 diacid = O=C(O)CCCCCCCCCCCCCCCCC(=O)*; X6 = CN(CC[C@H](N[*:1])C(=O)[*:2])[*:3]; γGlu = O=C(O)[C@H](CCC(=O)[*:2])N[*:1]; 2Nal = N[C@@H](Cc1ccc2ccccc2c1)C(=O)O; AEF = NCCOc1ccc(C[C@H](N)C(=O)O)cc1; X2 = C[N+](C)(C)C[C@@H](CC(=O)O)N*; X7 = C[N+](C)(C)CCOCCOCCOCCOC(=O)*; 3Pal = N[C@@H](Cc1cccnc1)C(=O)O; Lys(Me) = CNCCCC[C@H](N)C(=O)O; NMeK = CN[C@@H](CCCCN)C(=O)O; Pen = CC(C)(S)[C@H](N)C(=O)O; Suc = O=C(CCC(=O)[*:2])[*:1]; Thp = NC1(C(=O)O)CCOCC1; ξN = NC(=O)CC(N)C(=O)O; AEEA = NCCOCCOCC(=O)O; Sar = CNCC(=O)O

Key:
IL-23R = target: T1, IL-23R (Homo sapiens, UniProt Q5VWK5); assay: IL23R Reporter Assay; assay type: cell-based; details: HEK293 cells containing IL-23R, IL-12Rβ1 and STAT-inducible firefly luciferase reporter; 10 ng/mL IL-23 (EC90); 5 h
T1 construct: HEK293 cells containing IL-23R, IL-12Rβ1 and a firefly luciferase reporter gene driven by a STAT-inducible promoter (Promega); host or cells: HEK293
T1 sequence (Q5VWK5 24-629): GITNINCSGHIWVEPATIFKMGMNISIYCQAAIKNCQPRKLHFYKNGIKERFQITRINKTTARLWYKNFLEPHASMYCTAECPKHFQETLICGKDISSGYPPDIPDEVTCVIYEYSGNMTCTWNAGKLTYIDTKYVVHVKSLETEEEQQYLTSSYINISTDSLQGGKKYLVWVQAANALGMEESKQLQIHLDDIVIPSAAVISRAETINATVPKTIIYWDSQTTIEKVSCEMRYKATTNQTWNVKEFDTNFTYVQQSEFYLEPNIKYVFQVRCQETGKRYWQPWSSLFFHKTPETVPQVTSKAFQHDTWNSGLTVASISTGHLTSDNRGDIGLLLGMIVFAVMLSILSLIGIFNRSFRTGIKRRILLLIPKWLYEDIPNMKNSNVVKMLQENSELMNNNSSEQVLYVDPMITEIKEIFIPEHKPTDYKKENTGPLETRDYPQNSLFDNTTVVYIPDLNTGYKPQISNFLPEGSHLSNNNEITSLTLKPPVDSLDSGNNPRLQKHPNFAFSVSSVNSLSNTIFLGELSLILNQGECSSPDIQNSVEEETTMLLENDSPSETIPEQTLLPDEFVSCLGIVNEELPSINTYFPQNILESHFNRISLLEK
In short: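 IC50 values were fitted with a 4-parameter Hill equation to luciferase signal, scaled between IL-23-only wells (0% inhibition) and 30 μM reference inhibitor (100%). The readout was a STAT-inducible reporter in IL-23R/IL-12Rβ1 HEK293 cells, stimulated with added 10 ng/mL IL-23 (EC90) for 5 h at 37° C and developed with BioGlo.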

[1] = tested on: IL-23-stimulated phosphorylated STAT3 in peripheral blood mononuclear cells (PBMCs); assay: PBMC pSTAT3 Assay; assay type: cell-based; details: PBMCs from healthy donors; 30 min preincubation with peptide; IL-23 5 ng/mL for 30 min; phospho-STAT3 by MSD
In short: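 Phospho-STAT3 quantified by Meso Scale assay in lysates of PBMCs exposed to IL-23 (5 ng/mL, 30 min, 37 °C) after 30 min peptide pretreatment. Cells were cryopreserved donor PBMCs activated 4 days with anti-CD3 plus IL-1β (100 ng/mL) and starved ~4 h; IC50 reported.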

Structure (SMILES) | IC50 (IL-23R) | IC50 [1]
CC(=O)N[C@H](CCCNC(=N)N)C(=O)N[C@@H]1C(=O)N[C@@H](CCCCNC(=O)COCCOCCNC(=O)COCCOCCNC(=O)CC[C@H](NC(=O)CCCCCCCCCCCCCCCCC(=O)O)C(=O)O)C(=O)N[C@@H]([C@@H](C)O)C(=O)N[C@@H](Cc2c[nH]c3c(C)cccc23)C(=O)N[C@@H](CCCCN(C)C(=O)CCOCCOCC[N+](C)(C)C)C(=O)N[C@H](C(=O)N[C@@H](Cc2ccc(OCCN)cc2)C(=O)N[C@@H](Cc2ccc3ccccc3c2)C(=O)NC2(C(=O)N[C@@H](CCC(=O)O)C(=O)N[C@@H](CC(N)=O)C(=O)N[C@@H](Cc3cccnc3)C(=O)N(C)CC(N)=O)CCOCC2)C(C)(C)SSC1(C)C [compound 77, 5cpaCO-Pen(3)-N-T-7MeW-K(Ac)-Pen(3)-AEF-2Nal-THP-K(PEG2PEG2gEC18OH)-N-3Pya-Sar-CONH2] (Ac-[dR][Pen]K([AEEA-AEEA-γGlu-C18 diacid])T[Trp(7-Me)][Lys(Me)](Me3N+(CH2)2O(CH2)2O(CH2)2CO)[Pen][AEF][2Nal][Thp]EN[3Pal][Sar]-NH2; disulfide 2-7) | 50 to 500 nM | < 0.5 nM
C=C(O)CCCCCCCCCCCCCCCCC(=O)N[C@@H](CCC(=O)NCCOCCOCC(=O)NCCCCCOCC(=O)NCCCC[C@@H]1NC(=O)[C@@H](NC(=O)CCOCCOCC[N+](C)(C)C)CCCC[C@@H](C(=O)N[C@@H](Cc2ccc(OCCOCCOCC[N+](C)(C)C)cc2)C(=O)N[C@@H](Cc2ccc3ccccc3c2)C(=O)NC2(C(=O)N[C@@H](CCCCN(C)C(C)=O)C(=O)N[C@@H](CC(N)=O)C(=O)N[C@@H](Cc3cccnc3)C(=O)N(C)CC(=O)N(C)C)CCCCC2)NC(=O)[C@H](CCCCN(C)C(C)=O)NC(=O)[C@H](Cc2c[nH]c3c(C)cccc23)NC(=O)[C@H]([C@@H](C)O)NC1=O)C(=O)O [compound 158, cPEG3aCO-Pen(3)-K(PEG2PEG2gEC18OH)-T-7MeW-K(NMeAc)-Pen(3)-APEG3F-2Nal-THP-K(NMeAc)-N-3Pya-Sar-CON(Me)2] | 50 to 500 nM | 0.5 to 5 nM
CC(=O)NCCCC[C@@H]1NC(=O)[C@H](Cc2c[nH]c3c(C)cccc23)NC(=O)[C@H]([C@@H](C)O)NC(=O)[C@H](CC(N)=O)NC(=O)[C@@H](NC(=O)[C@@H](CCCCNC(=O)CCOCCOCCOCCOCCOCCOCCOCCOCCOCCOCCOCCOCCNC(=O)CC[C@H](NC(=O)CCCCCCCCCCCCCCCCCCC(=O)O)C(=O)O)NC(C)=O)C(C)(C)SSC(C)(C)[C@@H](C(=O)N[C@@H](Cc2ccc(OCCN)cc2)C(=O)N[C@@H](Cc2ccc3ccccc3c2)C(=O)NC2(C(=O)N[C@@H](CCCCNC(C)=O)C(=O)N[C@@H](CC(N)=O)C(=O)N[C@@H](Cc3cccnc3)C(=O)N(C)CC(N)=O)CCOCC2)NC1=O [compound 104, MeCO-k(PEG12gEC20OH)-Pen(3)-N-T-7MeW-K(Ac)-Pen(3)-AEF-2Nal-THP-K(Ac)-N-3Pya-Ser-CONH2] (Ac-[dK]([PEG12-γGlu-C20 diacid])[Pen]NT[Trp(7-Me)]K(Ac)[Pen][AEF][2Nal][Thp]K(Ac)N[3Pal][Sar]-NH2; disulfide 2-7) | < 50 nM | < 0.5 nM
CC(=O)NCCCC[C@@H]1NC(=O)[C@H](Cc2c[nH]c3c(C)cccc23)NC(=O)[C@H]([C@@H](C)O)NC(=O)[C@H](CC(N)=O)NC(=O)[C@@H](NC(=O)C(CCCNC(=N)N)CC(=O)COCCOCCNC(=O)COCCOCCNC(=O)CC[C@H](NC(=O)CCCCCCCCCCCCCCCCC(=O)O)C(=O)O)C(C)(C)SSC(C)(C)[C@@H](C(=O)N[C@@H](Cc2ccc(OCCN)cc2)C(=O)N[C@@H](Cc2ccc3ccccc3c2)C(=O)NC2(C(=O)N[C@@H](CCC(=O)O)C(=O)N[C@@H](CC(N)=O)C(=O)N[C@@H](Cc3cccnc3)C(=O)N(C)[C@@H](CCCCNC(=O)CCC(=O)N[C@H](CC(=O)O)C[N+](C)(C)C)C(N)=O)CCOCC2)NC1=O (stereo partly shown) [compound 43, HOC18gEPEG2PEG2CO-r-Pen(3)-N-T-7MeW-K(Ac)-Pen(3)-AEF-2Nal-THP-E-N-3Pya-NMeK(d)-CONH2] | < 50 nM | < 0.5 nM
CC(=O)N(C)CCCC[C@@H]1NC(=O)[C@H](Cc2c[nH]c3c(C)cccc23)NC(=O)[C@H]([C@@H](C)O)NC(=O)[C@H](CC(=O)N(C)C)NC(=O)[C@@H](NC(=O)CCOCCOCC[N+](C)(C)C)C(C)(C)SSC(C)(C)[C@@H](C(=O)N[C@@H](Cc2ccc(CCCCCC[N+](C)(C)CCOCCOCCNC(=O)COCCOCCNC(=O)CC[C@H](NC(=O)CCCCCCCCCCCCCCCCC(=O)O)C(=O)O)cc2)C(=O)N[C@@H](Cc2ccc3ccccc3c2)C(=O)NC2(C(=O)N[C@@H](CC(N)=O)C(=O)N[C@@H](Cc3cccnc3)C(=O)N(C)CC(=O)N(C)C)CCOCC2)NC1=O [compound 143, cPEG3aCO-Pen(3)-N(N(Me)2)-T-7MeW-K(NMeAc)-Pen(3)-TMAPF(PEG2PEG2gEC18OH)-2Nal-THP-N-3Pya-Sar-CON(Me)2] ({Me3N+(CH2)2O(CH2)2O(CH2)2CO}-[Pen]D(NMe2)T[Trp(7-Me)][Lys(Me)](Ac)[Pen][X4]([AEEA-γGlu-C18 diacid])[2Nal][Thp]N[3Pal][Sar]-NMe2; disulfide 1-6) | ≥ 500 nM | ≥ 5 nM
CC(=O)[C@H](CCCCNC(=O)CC[C@H](NC(=O)CCCCCCCCCCCCCCCCC(=O)O)C(=O)O)N(C)C(=O)[C@H](Cc1cccnc1)NC(=O)[C@H](CC(N)=O)NC(=O)[C@H](CCC(=O)O)NC(=O)C1(NC(=O)[C@H](Cc2ccc3ccccc3c2)NC(=O)[C@H](Cc2ccc(OCCN)cc2)NC(=O)[C@H]2NC(=O)[C@H](CCN(C)C(=O)OCCOCCOCCOCC[N+](C)(C)C)NC(=O)[C@H](Cc3c[nH]c4c(C)cccc34)NC(=O)[C@H]([C@@H](C)O)NC(=O)[C@H](CC(=O)N(C)C)NC(=O)[C@@H](NC(=O)CCOCCOCCOCCOCC[N+](C)(C)C)C(C)(C)SSC2(C)C)CCOCC1 [compound 106, cPEG5aCO-Pen(3)-N(N(Me)2)-T-7MeW-Dab(NMecPEG5a)-Pen(3)-AEF-2Nal-THP-E-N-3Pya-NMeK(gEC18OH)-CONH2] ({Me3N+CH2CH2(OCH2CH2)4CO}-[Pen]D(NMe2)T[Trp(7-Me)][X6](X7)[Pen][AEF][2Nal][Thp]EN[3Pal]-X8; disulfide 1-6) | 50 to 500 nM | 0.5 to 5 nM
Cc1cccc2c(C[C@@H]3NC(=O)[C@H]([C@@H](C)O)NC(=O)[C@H](CC(N)=O)NC(=O)[C@@H](NC(=O)[C@@H](CCCNC(=N)N)NC(=O)CCC(=O)N[C@H](CC(=O)O)C[N+](C)(C)C)C(C)(C)SSC(C)(C)[C@@H](C(=O)N[C@@H](Cc4ccc(OCCN)cc4)C(=O)N[C@@H](Cc4ccc5ccccc5c4)C(=O)NC4(C(=O)N[C@@H](CCC(=O)O)C(=O)N[C@@H](CC(N)=O)C(=O)N[C@@H](Cc5cccnc5)C(=O)N(C)CC(N)=O)CCOCC4)NC(=O)[C@H](CCCCNC(=O)COCCOCCNC(=O)COCCOCCNC(=O)CC[C@H](NC(=O)CCCCCCCCCCCCCCCCC(=O)O)C(=O)O)NC3=O)c[nH]c12 [compound 19, MeCO-r-Pen(3)-N-T-7MeW-K(PEG2PEG2gEC18OH)-Pen(3)-AEF-2Nal-THP-E-N-3Pya-NMeK(d)-CONH2] ({X2-Suc}-[dR][Pen]NT[Trp(7-Me)]K([AEEA-AEEA-γGlu-C18 diacid])[Pen][AEF][2Nal][Thp]EN[3Pal][Sar]-NH2; disulfide 2-7) | 50 to 500 nM | < 0.5 nM
CC(=O)N(C)CCCC[C@@H]1NC(=O)[C@H](Cc2c[nH]c3c(C)cccc23)NC(=O)[C@H]([C@@H](C)O)NC(=O)[C@H](CC(=O)N(C)C)NC(=O)[C@@H](CC(=O)CCOCCOCC[N+](C)(C)C)C(C)(C)SSC(C)(C)[C@@H](C(=O)N[C@@H](Cc2ccc(OCCOCCOCC[N+](C)(C)C)cc2)C(=O)N[C@@H](Cc2ccc3ccccc3c2)C(=O)NC2(C(=O)N[C@@H](CCCCN(C)C(C)=O)C(=O)NC(CC(N)=O)C(=O)N[C@@H](Cc3cccnc3)C(=O)N(C)[C@@H](CCCCNC(=O)COCCOCCNC(=O)COCCOCCNC(=O)CC[C@H](NC(=O)CCCCCCCCCCCCCCCCC(=O)O)C(=O)O)C(N)=O)CCOCC2)NC1=O (stereo partly shown) [compound 113, cPEG3aCO-Pen(3)-N(N(Me)2)-T-7MeW-K(NMeAc)-Pen(3)-APEG3F-2Nal-THP-K(NMeAc)-N-3Pya-NMeK(PEG2PEG2gEC18OH)-CONH2] (D(NMe2)T[Trp(7-Me)][Lys(Me)](Ac)[Pen]Y(CH2CH2OCH2CH2OCH2CH2NMe3+)[2Nal][Thp][Lys(Me)](Ac)[ξN][3Pal][NMeK]([AEEA-AEEA-γGlu-C18 diacid])-NH2; linker N-5 via X16) | < 50 nM | < 0.5 nM
